Source: patent US8367887B2, “Normal-tension glaucoma model and method for evaluation of test substances by using same” (Shinshu University, priority 2007, dated 2013)
Structures can show the parent of a compound that is named as a salt.

Tests used:
retinal ganglion cells [1] = assay: Screening of test substances: protection of retinal ganglion cells from NMDA-induced apoptosis in wild-type and NF-κBp50-deficient mice; assay type: in vivo, mouse; details: 5 mM NMDA into vitreous; for effect of protecting retinal ganglion cells from NMDA-induced apoptosis (conclusion in words): wild-type and NF-κBp50-deficient mice, 24 hours
Description: (§1) Intravitreal NMDA injection was performed. 2 μl of 5 mM solution of NMDA in buffered saline solution (BSS) was injected into the vitreous of the left eye of each mouse aged 2 months. The right eyes were injected with BSS alone. At 24 hours and 4 days after injection, the eyes were enucleated and fixed in 4% paraformaldehyde in PB, followed by dehydration and paraffin embedding. Tranverse sections were made through the optic disc and stained with hematoxylin and eosin (H&E). Cells of 0.35 mm length at 0.3 mm from the edge of the optic disc in the ganglion cell layer were counted except for cells infiltrating the ganglion cell layer. The average number of cells per field was analyzed, and statistical differences were analyzed by the Student's t test.
By intraperitoneal administration, phosphate buffered saline (PBS) as control substance was respectively administered to wild-type mice and NF-κBp50-deficient mice once daily for 7 days. 5 mM of NMDA was directly administered into vitreous of the mice, and then the number of retinal ganglion cells after 24 hours was counted.
By intraperitoneal administration, 10 mg/kg of memantine hydrochloride, which is used as a curative medicine for Alzheimer type dementia and is an antagonist of NMDA receptor as one of glutamic acid receptor, was respectively administered to wild-type mice and […] mice once daily for 7 days. 5 mM of NMDA was directly administered into vitreous of the mice, and then the number of retinal ganglion cells after 24 hours were counted.
100 mg/kg of lomerizine hydrochloride, which is used as a curative medicine for migraine and is a piperazine-type calcium inhibitor, was respectively administered orally via catheters to wild-type mice and NF-κBp50-deficient mice once daily for 7 days. 5 mM of NMDA was directly administered into vitreous thereof, and then the number of retinal ganglion cells after 24 hours was numerated.
By intraperitoneal administration, 10 mg/kg of MK-801, which is NMDA receptor antagonist and is (5S,10R)-[…]-5-methyl-10,11-dihydro-5H-dibenzo[a,d]-cyclo-hepten-5,10-imine hydrogen maleate, was respectively administered to wild-type mice and NF-κBp50-deficient mice once daily for 7 days. 5 mM of NMDA was directly administered into vitreous thereof, and then the number of retinal ganglion cells after 24 hours was counted.
A control group was kept alike with administration for 2 weeks instead of administration of PBS for 7 days under above-mentioned control group. On the other hand, 3 mg/kg of […] was respectively administered to wild-type mice and NF-κBp50-deficient mice once daily for 2 weeks by intraperitoneal administration. 5 mM of NMDA was directly administered into vitreous thereof, and then the number of retinal ganglion cells after 24 hours was counted.

retinal ganglion cells [2] = assay: Susceptibility of NMDA-induced neurotoxicity (intravitreal NMDA, count of live ganglion cells) in wild-type and NF-κBp50-deficient mice; assay type: in vivo, mouse; details: for cell death in GCL (ganglion cell layer): 2 months old, 10 nmol NMDA intravitreal, 24 hours, FIG. 5
Description: as §1
Since NMDA receptor-mediated excitotoxicity has been reported to contribute to glaucomatous neuropathy and the NMDA receptor-mediated […] leads apoptosis of the neurons, the effect of NF-κBp50 on NMDA-induced neurotoxicity was examined. NMDA has excitotoxicity at a high concentration of 100 nmol which promptly leads cell death. The results of histological examination of the retinas at 24 hours after intravitreal injection of 10 nmol NMDA, which is a relatively low concentration as for NMDA-induced neurotoxicity, are shown in FIG. 5.
The live cells were counted in length of 0.35 mm at 0.3 mm each from the edge of the optic disc. Bar graphs show the number of cells in GCL at time before and 24 hours after NMDA-treatment. The average number of cells per field was analyzed by the two-tailed t-test. Statistical differences were analyzed by the Student's t test. Data are mean±SEM (n=6 to 7 mice). *1p<0.01 versus wild-type mice. *2p<0.01 versus wild-type mice.
[…] of NMDA were directly administered into vitreous respectively, and then the number of live ganglion cells was counted. As a control, the number of live ganglion cells without administration of NMDA was also counted. […] On the other hand, in the case of wild-type mice and NF-κBp50-deficient mice with injection of […] NMDA, which is a relatively low concentration, while almost all of the ganglion cells in wild-type mice survived at 4 days after NMDA treatment, about 60% of the ganglion cells in NF-κBp50-deficient mice were dead within 24 hours by apoptosis and moreover almost all of them were dead within 96 hours.

[3] = wild-type mice and NF-κBp50-deficient mice, injection of 50 mM NMDA into vitreous, FIG. 6

Compound: C=CC[C@@H]1/C=C(\C)C[C@H](C)C[C@H](OC)[C@H]2O[C@@](O)(C(=O)C(=O)N3CCCC[C@H]3C(=O)O[C@H](/C(C)=C/[C@@H]3CC[C@@H](O)[C@H](OC)C3)[C@H](C)[C@@H](O)CC1=O)[C@H](C)C[C@@H]2OC [KF506]
- retinal ganglion cells dead by apoptosis within 24 hours after administration of NMDA (retinal ganglion cells [1]; NF-κBp50-deficient mice, 3 mg/kg intraperitoneal once daily for 2 weeks, FIG. 7f): no more than 34%
- retinal ganglion cells dead by apoptosis within 24 hours after administration of NMDA (retinal ganglion cells [1]; wild-type mice, 3 mg/kg intraperitoneal once daily for 2 weeks, FIG. 7f): about 5%

Compound: C[C@]12N[C@H](Cc3ccccc31)c1ccccc12 [MK-801, (5S,10R)-(−)-5-methyl-10,11-dihydro-5H-dibenzo[a,d]-cyclo-hepten-5,10-imine hydrogen maleate]
- retinal ganglion cells dead by apoptosis within 24 hours after administration of NMDA (retinal ganglion cells [1]; NF-κBp50-deficient mice, 10 mg/kg intraperitoneal once daily for 7 days, FIG. 7d): no more than 9%
- effect of protecting retinal ganglion cells from NMDA-induced apoptosis (conclusion in words) (retinal ganglion cells [1]): had pharmacological effects of protecting retinal ganglion cells from NMDA-induced apoptosis
- retinal ganglion cells dead by apoptosis within 24 hours after administration of NMDA (retinal ganglion cells [1]; wild-type mice, 10 mg/kg intraperitoneal once daily for 7 days, FIG. 7d): about 2%

Compound: CN[C@H](CC(=O)O)C(=O)O [NMDA, N-methyl D aspartate]
- cell death in GCL (ganglion cell layer) (retinal ganglion cells [2]; NF-κBp50-deficient mice): markedly induced cell death in GCL
- ganglion cells dead within 96 hours (retinal ganglion cells [2]; NF-κBp50-deficient mice, injection of 5 nM NMDA into vitreous, FIG. 6): almost all
- ganglion cells dead within 24 hours by apoptosis (retinal ganglion cells [2]; NF-κBp50-deficient mice, injection of 5 mM NMDA into vitreous, FIG. 6): about 60%
- ganglion cells dead by apoptosis within 24 hours after NMDA treatment (retinal ganglion cells [2]; [3]): about half
- ganglion cells dead by apoptosis within 96 hours (4 days) (retinal ganglion cells [2]; [3]): almost all
- cell death in GCL (ganglion cell layer) (retinal ganglion cells [2]; wild-type mice): no significance was observed
- ganglion cells survived at 4 days after NMDA treatment (retinal ganglion cells [2]; wild-type mice, injection of 5 mM NMDA into vitreous, FIG. 6): almost all

Compound: COc1ccc(CN2CCN(C(c3ccc(F)cc3)c3ccc(F)cc3)CC2)c(OC)c1OC [lomerizine hydrochloride]
- retinal ganglion cells dead by apoptosis within 24 hours after administration of NMDA (retinal ganglion cells [1]; NF-κBp50-deficient mice, 100 mg/kg orally via catheters once daily for 7 days, FIG. 7c): no more than 28%
- retinal ganglion cells dead by apoptosis within 24 hours after administration of NMDA (retinal ganglion cells [1]; wild-type mice, 100 mg/kg orally via catheters once daily for 7 days, FIG. 7c): about 2%

Compound: CC12CC3CC(C)(C1)CC(N)(C3)C2 [memantine hydrochloride]
- retinal ganglion cells dead by apoptosis within 24 hours after administration of NMDA (retinal ganglion cells [1]; NF-κBp50-deficient mice, 10 mg/kg intraperitoneal once daily for 7 days, FIG. 7b): about 15%
- effect of protecting retinal ganglion cells from NMDA-induced apoptosis (conclusion in words) (retinal ganglion cells [1]): had pharmacological effects of protecting retinal ganglion cells from NMDA-induced apoptosis
- retinal ganglion cells dead by apoptosis within 24 hours after administration of NMDA (retinal ganglion cells [1]; wild-type mice, 10 mg/kg intraperitoneal once daily for 7 days, FIG. 7b): about 3%
